# In patent EP0055702B1, “Antithrombotic treatment” (priority 1980, dated 1982):
# Like-named read-outs stand apart in the source and are kept apart here.
# Legend:
# [1] = test system: human platelet-rich plasma; assay: Platelet aggregometer, technique of Born, human platelet-rich plasma; assay type: cell-based; details: 1 millimole (mM), ADP, collagen, epinephrine and arachidonic acid
# Description: In order to evaluate an antithrombotic effect, it is preferable to withdraw samples of blood from a patient undergoing treatment and measure platelet aggregation. One method is described by Born in Nature 194, pp. 927-929 (1962) and may be used for this purpose, if desired.
# That sodium bisulphite is a platelet antiagregatory agent is shown by using a platelet aggregometer based on the technique of Born (above cited).
# [2] = test system: human, rabbit and rat plasma; assay: PT (prothrombin time) in plasma in vitro, Example 3; assay type: biochemical
# Description: (§1) Sodium, potassium and ammonium bisulphites are found to prolong PT and PTT in a dose-related fashion.
# (§2) The evaluation procedure used is that described in "Human Blood Coagulation, Haemostasis and Thrombosis", edited by Rosemary Biggs, published by Blackwell Scientific Publications, Oxford, England (2nd Edition), pages 670-705, 1976.
# [3] = test system: human, rabbit and rat plasma; assay: PTT (partial thromboplastin time) in plasma in vitro, Example 3; assay type: biochemical; details: for PTT (seconds) Exp. 1 A / PTT (seconds) Exp. 2 A: active agent 0.5/ml, control
# Description: as §1, §2
# [4] = test system: human plasma; assay: Prothrombin Time, Example 4; assay type: biochemical
# Description: (§3) The evaluation procedure used is that described in "Human Blood Coagulation, Haemostasis and Thrombosis", edited by Rosemary Biggs, published by Blackwell Scientific Publications, Oxford, England (2nd Edition), pages 670-705, 1976. […]
# [5] = test system: human plasma; assay: Partial Thromboplastin Time, Example 4; assay type: biochemical
# Description: as §3
# [6] = biological target: T1, F IX (Homo sapiens, UniProt P00740); assay: Factor IX assay, Example 4; assay type: biochemical; parameters: F IX: unit not given beside the values; details: for V IX: solution D; for V IX / F IX: Control 66
# T1 construct: from tissue; host or cells: human plasma
# Description: as §3
# [7] = biological target: T2, F XI (Homo sapiens, UniProt P03951); assay: Factor XI assay, Example 4; assay type: biochemical; details: for F XI: Control 117
# T2 construct: from tissue; host or cells: human plasma
# Description: as §3
# [8] = test system: human plasma; assay: Blood coagulation factors by standard procedures (Biggs), human plasma; assay type: biochemical; details: 5 mg/ml
# Experimental: The effect of U.S.P. grade sodium bisulphite on blood coagulation factors was evaluated by standard procedures (Biggs) and the results are shown in Table III below.
# The effect is directly proportional to dose.
# [9] = test system: thrombus formation in the jugular vein; assay: Anti-venous thrombotic effect, 125I fibrinogen technique in rabbits; assay type: in vivo
# Description: Also, a thrombosis is detectable, for example, from a patient's conditions symptomatically perceivable by a skilled medical practitioner and well known to the art of medicine. Objectively, various methods are available, including venography, impedance plethysmography, doppler ultrasound and the 1251-fibrinogen test (see, for example, the articles by Kakkar, "Archives of Surgery", 104, page 152 (1972) and by Kelton, J.G. et al, Journal of Clinical Investigation, Vol. 62, pgs. 892-895, (1978)).
# The anti-venous thrombotic effect of sodium bisulphite was evaluated in rabbits by using the 1^125 fibrinogen technique described above.
# Each rabbit was continuously infused with aqueous sodium bisulphite solution at the rate of 460 mg/kg per hr. (2.97 grams) (animal body weight 2.3 kg).
# After 5 hours, the animal was sacrificed and the radioactive fibrinogen accumulated in the damaged jugular vein was determined. The radioactivity in the contra-lateral (undamaged) jugular vein was also determined, to serve as a control. Concurrently, another rabbit was subjected to the same procedure, but was given only a standard sodium chloride solution, as a control.
# [10] = PT of coded and various agents, Example 6; assay type: biochemical
# Description: (§4) A variety of agents were coded and evaluated under a code designation. Among these compounds, thiouracil, mercaptosuccinic acid, thiosemicarbazide, phenothiazine and sodium thiosulphate were included, so as to compare sodium bisulphite with certain compounds mentioned in USP 4,148,855.
# (§5) After determination of PT and PTT values, the coded compounds were decoded.
# (§6) The results are shown in Table V, where mean values of 5 replications in each case are reported. […] This procedure was repeated with some additional compounds on two different days using a different control on each day.
# [11] = PTT of coded and various agents, Example 6; assay type: biochemical; details: Table V, coded agents 0.5 mg/ml; Control 43.38
# Description: as §4, §5, §6
# [12] = test system: blood; assay: Storage of human blood samples with added sodium bisulphite solution; details: about 4 cc blood plus about 10 drops of 10 weight percent solution; about 2) years at ambient temperatures
# Experimental: Samples of about 4 cc each of blood were prepared. To each of these was added about 10 drops of a 10 weight percent solution of sodium bisulphite in distilled water. Each sample was then sealed into a glass vial.
# [13] = 0.5 mg/ml, human, rabbit and rat plasma in vitro, dose-related
# [14] = Test sequence A, active agent 0.5/ml, control
# [15] = chemical grade sodium bisulphite 0.01 mg/ml
# [16] = chemical grade sodium bisulphite 0.05 mg/ml
# [17] = chemical grade sodium bisulphite 0.1 mg/ml
# [18] = chemical grade sodium bisulphite 0.5 mg/ml
# [19] = chemical grade sodium bisulphite 1.0 mg/ml
# [20] = chemical grade sodium bisulphite 5.0 mg/ml
# T2 sequence (P03951 19-625): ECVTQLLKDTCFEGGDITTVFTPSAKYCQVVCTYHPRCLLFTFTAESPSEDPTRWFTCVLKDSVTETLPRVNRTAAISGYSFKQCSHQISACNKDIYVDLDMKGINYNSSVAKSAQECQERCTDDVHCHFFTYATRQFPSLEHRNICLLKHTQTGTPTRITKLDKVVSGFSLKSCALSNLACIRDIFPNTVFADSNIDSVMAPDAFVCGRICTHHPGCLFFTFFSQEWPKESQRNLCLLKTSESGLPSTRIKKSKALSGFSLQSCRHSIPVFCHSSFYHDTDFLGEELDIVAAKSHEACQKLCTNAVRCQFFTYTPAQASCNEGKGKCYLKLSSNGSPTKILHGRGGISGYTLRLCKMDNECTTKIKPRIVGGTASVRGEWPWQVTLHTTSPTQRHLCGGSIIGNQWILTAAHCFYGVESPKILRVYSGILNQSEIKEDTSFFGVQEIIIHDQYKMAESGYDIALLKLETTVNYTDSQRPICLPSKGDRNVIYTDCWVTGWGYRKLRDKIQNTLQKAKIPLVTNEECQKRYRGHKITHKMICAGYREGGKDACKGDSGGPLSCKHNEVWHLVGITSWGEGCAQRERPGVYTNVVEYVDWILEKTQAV
# T1 sequence (P00740 47-461): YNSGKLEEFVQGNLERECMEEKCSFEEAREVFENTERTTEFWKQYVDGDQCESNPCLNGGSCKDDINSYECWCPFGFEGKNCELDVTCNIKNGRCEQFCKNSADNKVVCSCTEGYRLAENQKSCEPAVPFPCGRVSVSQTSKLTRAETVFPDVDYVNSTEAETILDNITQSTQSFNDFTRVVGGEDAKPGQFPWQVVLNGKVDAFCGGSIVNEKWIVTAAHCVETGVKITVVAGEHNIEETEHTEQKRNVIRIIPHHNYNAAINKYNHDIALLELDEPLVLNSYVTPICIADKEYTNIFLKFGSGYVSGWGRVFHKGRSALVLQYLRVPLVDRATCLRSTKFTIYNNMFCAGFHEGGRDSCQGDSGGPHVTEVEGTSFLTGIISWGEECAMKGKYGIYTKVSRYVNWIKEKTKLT
substance,measurement,setting,value
Sodium bisulphite,platelet aggregation,[1],abolishes platelet aggregation
same,prolongation of PT,[2]; [13],significantly prolong
same,PT (seconds) Exp. 1 A,[2]; [14],22.1 s
same,PT (seconds) Exp.2 A,[2]; [14],23.2 s
same,PT (seconds) Exp. 1 A,"[2]; Test sequence B, active agent 0.5/ml, control",25.5 s
same,prolongation of PTT,[3]; [13],significantly prolong
same,PTT (seconds) Exp. 1 A,[3]; Test sequence A,128.2 s
same,PTT (seconds) Exp. 2 A,[3]; Test sequence A,121.9 s
same,PTT (seconds) Exp. 1 A,[3]; Test sequence B,128.2 s
same,PTT (seconds) Exp. 2 A,[3]; Test sequence B,162.6 s
same,PT,"[4]; Sodium bisulphite 0.01 mg/ml, solution D, Control 34.67",33.37 s
same,PT,"[4]; Sodium bisulphite 0.05 mg/ml, solution D, Control 34.67",34.00 s
same,PT,"[4]; Sodium bisulphite 0.1 mg/ml, solution D, Control 34.67",34.85 s
same,PT,"[4]; Sodium bisulphite 0.5 mg/ml, solution D, Control 34.67",42.73 s
same,PT,"[4]; Sodium bisulphite 1.0 mg/ml, solution D, Control 34.67",85.33 s
same,PT,"[4]; Sodium bisulphite 5.0 mg/ml, solution D, Control 34.67",>150 s
same,PT,"[4]; chemical grade sodium bisulphite 0.01 mg/ml, Control 12.20",12.30 s
same,PT,"[4]; chemical grade sodium bisulphite 0.05 mg/ml, Control 12.20",12.47 s
same,PT,"[4]; chemical grade sodium bisulphite 0.1 mg/ml, Control 12.20",12.90 s
same,PT,"[4]; chemical grade sodium bisulphite 0.5 mg/ml, Control 12.20",16.10 s
same,PT,"[4]; chemical grade sodium bisulphite 1.0 mg/ml, Control 12.20",22.38 s
same,PT,"[4]; chemical grade sodium bisulphite 5.0 mg/ml, Control 12.20",>150 s
same,PTT,"[5]; Sodium bisulphite 0.01 mg/ml, solution D, Control 12.20",12.33 s
same,PTT,"[5]; Sodium bisulphite 0.05 mg/ml, solution D, Control 12.20",12.43 s
same,PTT,"[5]; Sodium bisulphite 0.1 mg/ml, solution D, Control 12.20",12.85 s
same,PTT,"[5]; Sodium bisulphite 0.5 mg/ml, solution D, Control 12.20",15.43 s
same,PTT,"[5]; Sodium bisulphite 1.0 mg/ml, solution D, Control 12.20",22.63 s
same,PTT,"[5]; Sodium bisulphite 5.0 mg/ml, solution D, Control 12.20",>150 s
same,PTT,"[5]; chemical grade sodium bisulphite 0.01 mg/ml, Control 34.67",32.80 s
same,PTT,"[5]; chemical grade sodium bisulphite 0.05 mg/ml, Control 34.67",33.77 s
same,PTT,"[5]; chemical grade sodium bisulphite 0.1 mg/ml, Control 34.67",34.40 s
same,PTT,"[5]; chemical grade sodium bisulphite 0.5 mg/ml, Control 34.67",44.87 s
same,PTT,"[5]; chemical grade sodium bisulphite 1.0 mg/ml, Control 34.67",78.46 s
same,PTT,"[5]; chemical grade sodium bisulphite 5.0 mg/ml, Control 34.67",>150 s
same,effect on Factor IX,"[6]; 0.5 mg per ml, human plasma",significant inhibitory effect
same,V IX,[6]; Sodium bisulphite 0.01 mg/ml,60%
same,V IX,[6]; Sodium bisulphite 0.05 mg/ml,52%
same,V IX,[6]; Sodium bisulphite 0.1 mg/ml,56%
same,V IX,[6]; Sodium bisulphite 0.5 mg/ml,4%
same,V IX,[6]; Sodium bisulphite 1.0 mg/ml,3%
same,V IX,[6]; Sodium bisulphite 5.0 mg/ml,<1%
same,F IX,[6]; [15],49
same,F IX,[6]; [16],44
same,F IX,[6]; [17],40
same,F IX,[6]; [18],5
same,F IX,[6]; [19],1
same,F IX,[6]; [20],<1
same,effect on Factor XI,"[7]; 0.5 mg per ml, human plasma",significant inhibitory effect
same,F XI,"[7]; Sodium bisulphite 0.01 mg/ml, solution D",98%
same,F XI,"[7]; Sodium bisulphite 0.05 mg/ml, solution D",81%
same,F XI,"[7]; Sodium bisulphite 0.1 mg/ml, solution D",58%
same,F XI,"[7]; Sodium bisulphite 0.5 mg/ml, solution D",27%
same,F XI,"[7]; Sodium bisulphite 1.0 mg/ml, solution D",4%
same,F XI,"[7]; Sodium bisulphite 5.0 mg/ml, solution D",<1%
same,F XI,[7]; [15],83
same,F XI,[7]; [16],82
same,F XI,[7]; [17],55
same,F XI,[7]; [18],24
same,F XI,[7]; [19],2
same,F XI,[7]; [20],<1
same,coagulation of human plasma,[8],completely disrupted
same,"radioactivity (radioactive fibrinogen) in damaged jugular vein, control rabbit relative to infused rabbit","[9]; continuous infusion 460 mg/kg per hr, 5 hours, control given sodium chloride solution",7 times
same,death of other rabbits during infusion,"[9]; other rabbits similarly evaluated, apparently overdosing",died before the experiment was completed
same,PT,[10],22.42 s
same,PT,"[10]; Table V, coded agents 0.5 mg/ml, Control 12.92",23.06 s
same,PTT,[11],114.80 s
same,coagulation of stored blood samples,[12],have not coagulated
